Test results reported in patent publication EP0021678B1, “1-Sulpho-2-oxoazetidine derivatives, their production and pharmaceutical compositions thereof” (Takeda Chemical Industries, Ltd., priority 1979, dated 1981).
Where two headings read alike, the source gives them in different places.

Columns and labels:
Assay in all cases: Anti-bacterial test, minimum inhibitory concentration on agar
Assay type in all cases: cell-based
Klebsiella pneumoniae DT = conditions: Klebsiella pneumoniae DT, medium TSA
Description: (§1) The compound (I) thus obtained is useful as a drug, being active against certain gram-positive and gram-negative bacteria. By way of example, the compounds are active against the following micro-organisms.
(§2) The media and compounds employed in the anti-bacterial test are as follows: • Media: • TSA = Trypticase soy agar • [Baltimore Biologicals (U.S.A.)] • B-TSA = Blood trypticase soy agar • Compounds: • Compound A = Sodium 3-[2-(2-amino-4-thiazolyl)-2-methoxyiminoacetamido]-2-oxo-azetidine-1-sulphonate • Compound B = Sodium 3-[D(-)-N-(4-ethyl-2,3-dioxo-1-piperazinocarbonyl)-phenyl-glycin- amido]-2-oxoazetidine-1-sulphonate • Compound C = Sodium 3-[D(-)-N-(4-ethyl-2,3-dioxo-1-piperazinocarbonyl)phenylglycinamido]-3-methoxy-2-oxoazetidine-1-sulphonate • Compound D = Sodium 3-[2-(4-ethyl-2,3-dioxo-1-piperazinocarboxamido)-2-(2-amino-4-thiazolyl)-acetamido]-2-oxoazetidine-1-sulphonate • Compound E = Sodium 3-[DL-2-(4-ethyl-2,3-dioxo-1-piperazinocarboxamido)-2-thienylacetamido]-2-oxoazetidine-1-sulphonate • Compound F = Sodium 3-[D-2-(4-ethyl-2,3-dioxo-1-piperazinocarboxamido)-2-thienylacetamido]-2-oxoazetidine-1-sulphonate • Compound G = Sodium 3-[D-2-(4-n-octyl-2,3-dioxo-1-piperazinocarboxamido)-2-phenylacetamido]-2-oxoazetidine-1-sulphonate • Compound H = Sodium 3-[2-(4-n-octyl-2,3-dioxo-1-piperazinocarboxamido)-2-(2-amino-4-thiazolyl)-acetamido]-2-oxoazetidine-1-sulphonate • Compound I = Sodium 3-[D-2-[(2-oxo-3-furfurylideneaminoimidazolidin-1-yl)-carboxamido]-2-phenylacetamido]-2-oxoazetidine-1-sulphonate • Compound J = Sodium 3-[2-(4-n-octyl-2,3-dioxo-1-piperazinocarboxamido)-2-thienylacetamido]-2-oxoazetidine-1-sulphonate • Compound K = Sodium 3-[D-2-[[2-oxo-3-(thiophen-2-aidoimino)-imidazolidin-1-yl]-carboxamido]-2-phenylacetamido]-2-oxoazetidine-1-sulphonate • Compound L = Sodium 3-[2-[(2-oxo-3-furfurylideneaminoimidazolidin-1-yl)-carboxamido]-2-thienylacetamido]-2-oxoazetidine-1-sulphonate

[1] = system: Proteus morganii IFO 3168; conditions: Proteus morganii IFO 3168, medium TSA
Description: as §1, §2

[2] = system: Staphylococcus aureus 1840; conditions: Staphylococcus aureus 1840, medium TSA
Description: as §1, §2

[3] = system: Pseudomonas aeruginosa U 31; conditions: Pseudomonas aeruginosa U 31, medium TSA
Description: as §1, §2

[4] = system: Citrobacter freundii IFO 12681; conditions: Citrobacter freundii IFO 12681, medium TSA
Description: as §1, §2

[5] = system: Streptococcus pyogenes E—14; conditions: Streptococcus pyogenes E—14, medium B—TSA
Description: as §1, §2

[6] = system: Staphylococcus aureus 308A—1; conditions: Staphylococcus aureus 308A—1, medium TSA
Description: as §1, §2

[7] = system: Proteus mirabilis IFO 3849; conditions: Proteus mirabilis IFO 3849, medium TSA
Description: as §1, §2

[8] = system: Proteus vulgaris IFO 3988; conditions: Proteus vulgaris IFO 3988, medium TSA
Description: as §1, §2

[9] = system: Escherichia coli NIHJ JC—2; conditions: Escherichia coli NIHJ JC—2, medium TSA
Description: as §1, §2

[10] = system: Bordetella bronchiseptica Sagami; conditions: Bordetella bronchiseptica Sagami, medium B—TSA
Description: as §1, §2

[11] = system: Pseudomonas aeruginosa IFO 3455; conditions: Pseudomonas aeruginosa IFO 3455, medium TSA
Description: as §1, §2

[12] = system: Serratia marcescens IFO 12648; conditions: Serratia marcescens IFO 12648, medium TSA
Description: as §1, §2

Candida albicans TA = conditions: Candida albicans TA, medium TSA
Description: as §1, §2

[13] = system: Corynebacterium diphtheriae Toronto; conditions: Corynebacterium diphtheriae Toronto, medium B—TSA
Description: as §1, §2

[14] = system: Streptococcus mitis America; conditions: Streptococcus mitis America, medium B—TSA
Description: as §1, §2

Escherichia coli T-7 = system: Escherichia coli T-7
Description: as §1, §2

[15] = system: Enterobacter cloacae IFO 12937; conditions: Enterobacter cloacae IFO 12937, medium TSA
Description: as §1, §2

[16] = system: Streptococcus faecium IFO 3128; conditions: Streptococcus faecium IFO 3128, medium B—TSA
Description: as §1, §2

[17] = system: Streptococcus pyogenes S—8; conditions: Streptococcus pyogenes S—8, medium B—TSA
Description: as §1, §2

[18] = system: Streptococcus pneumoniae Type I; conditions: Streptococcus pneumoniae Type I, medium B—TSA
Description: as §1, §2

[19] = system: Staphylococcus aureus FDA209P; conditions: Staphylococcus aureus FDA209P; for MIC: Staphylococcus aureus, FDA209P, read-out: Minimum inhibitory concentration
Description: as §1, §2

[20] = system: Acinetobacter calcoaceticus IFO 13006; conditions: Acinetobacter calcoaceticus IFO 13006, medium TSA
Description: as §1, §2

Escherichia coli O—111 = conditions: medium TSA
Description: as §1, §2

[21] = read-out: Minimum inhibitory concentration

For `O=C(NC1CN(S(=O)(=O)[O-])C1=O)C(NC(=O)N1CCN(N=Cc2ccco2)C1=O)c1cccs1.[Na+]` (centres unmarked) [Compound L, Sodium 3-[2-[(2-oxo-3-furfurylideneaminoimidazolidin-1-yl)-carboxamido]-2-thienylacetamido]-2-oxoazetidine-1-sulphonate], the Minimum inhibitory concentration (Klebsiella pneumoniae DT) was <0.1 µg/mL, the Minimum inhibitory concentration [1] was 12.5 µg/mL and the Minimum inhibitory concentration [2] was 25 µg/mL. The Minimum inhibitory concentration [3] was >100 µg/mL, the Minimum inhibitory concentration [4] was 1.56 µg/mL and the Minimum inhibitory concentration [5] was 0.78 µg/mL. It also gave a Minimum inhibitory concentration [6] of 3.13 µg/mL, a Minimum inhibitory concentration [7] of 0.78 µg/mL and a Minimum inhibitory concentration [8] of 0.2 µg/mL. For the same molecule, the Minimum inhibitory concentration [9] was 1.56 µg/mL, the Minimum inhibitory concentration [10] was >100 µg/mL and the Minimum inhibitory concentration [11] was 3.13 µg/mL. For the same molecule, the Minimum inhibitory concentration [12] was 1.56 µg/mL, the Minimum inhibitory concentration (Candida albicans TA) was >100 µg/mL and the Minimum inhibitory concentration [13] was 1.56 µg/mL. For the same molecule, the Minimum inhibitory concentration [14] was 6.25 µg/mL, the Minimum inhibitory concentration (Escherichia coli T-7; medium TSA) was >100 µg/mL and the Minimum inhibitory concentration [15] was 25 µg/mL. The Minimum inhibitory concentration [16] was >100 µg/mL, the Minimum inhibitory concentration [17] was 0.78 µg/mL and the Minimum inhibitory concentration [18] was 1.56 µg/mL. For the same molecule, the Minimum inhibitory concentration ([19]; medium B—TSA) was 6.25 µg/mL, the Minimum inhibitory concentration ([19]; medium TSA) was 6.25 µg/mL and the Minimum inhibitory concentration [20] was 50 µg/mL. For the same molecule, the Minimum inhibitory concentration (Escherichia coli O—111) was <0.1 µg/mL.
For `CCN1CCN(C(=O)N[C@@H](C(=O)NC2CN(S(=O)(=O)O)C2=O)c2ccccc2)C(=O)C1=O` (single isomer, unassigned) [Compound B, Sodium 3-[D(-)-N-(4-ethyl-2,3-dioxo-1-piperazinocarbonyl)-phenyl-glycin-amido]-2-oxoazetidine-1-sulphonate], the MIC (Klebsiella pneumoniae DT; [21]) was 0.2 µg/mL, the MIC ([1]; Morganella morganii, IFO3168, read-out: Minimum inhibitory concentration) was 25 µg/mL and the MIC [2, 21] was 25 µg/mL. For the same molecule, the MIC ([3]; U31, read-out: Minimum inhibitory concentration) was > 100 µg/mL, the MIC ([4]; IFO12681, read-out: Minimum inhibitory concentration) was 6.25 µg/mL and the MIC [5, 21] was 3.13 µg/mL. The MIC [6, 21] was 3.13 µg/mL, the MIC ([7]; IFO3849, read-out: Minimum inhibitory concentration) was 0.78 µg/mL and the MIC ([8]; IFO3988, read-out: Minimum inhibitory concentration) was 0.1 µg/mL. The MIC [9, 21] was 1.56 µg/mL, the MIC [10, 21] was > 100 µg/mL and the MIC ([11]; IFO3455, read-out: Minimum inhibitory concentration) was 1.56 µg/mL. The MIC ([12]; IFO12648, read-out: Minimum inhibitory concentration) was 3.13 µg/mL, the MIC (Candida albicans TA; [21]) was > 100 µg/mL and the MIC [13, 21] was 3.13 µg/mL. For the same molecule, the MIC [14, 21] was 25 µg/mL, the MIC (Escherichia coli T-7; T7, medium TSA) was > 100 µg/mL and the MIC ([15]; IFO12937, read-out: Minimum inhibitory concentration) was 50 µg/mL. The MIC ([16]; Enterococcus faecium, IFO3128, read-out: Minimum inhibitory concentration) was > 100 µg/mL, the MIC [17, 21] was 6.25 µg/mL and the MIC [18, 21] was 6.25 µg/mL. The MIC ([19]; medium B—TSA) was 6.25 µg/mL, the MIC ([19]; medium TSA) was 6.25 µg/mL and the MIC ([20]; IFO13006, read-out: Minimum inhibitory concentration) was 25 µg/mL. The MIC (Escherichia coli O—111) was 0.2 µg/mL.
